Laboratory results: patent publication US9302999B2, “Substituted triazoles as herbicides” (E. I. DU PONT DE NEMOURS AND COMPANY, priority 2012, dated 2016)

Columns and labels:
Format in all cases: in vivo
[1] = system: pigweed (Amaranthus retroflexus); assay: Test A pre-/postemergence: pigweed; settings: for Pigweed plant response rating: Postemergence; for Plant response rating, Pigweed: Preemergence
In short: (§1)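 Visual 0–100 injury ratings (0 no effect, 100 complete control) taken about ten days after treatment, relative to untreated controls. Preemergence treatment was a directed soil spray; postemergence plants were 2–10 cm tall at one- to two-leaf stage. Soil: loam/sand blend.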

[2] = system: morningglory (Ipomoea spp.); assay: Test A pre-/postemergence: morningglory; settings: for Morningglory plant response rating: Postemergence; for Plant response rating, Morningglory: Preemergence
In short: as §1

[3] = system: wheat (Triticum aestivum); assay: Test A pre-/postemergence: wheat; settings: for Wheat plant response rating: Postemergence; for Plant response rating, Wheat: Preemergence
In short: as §1

rice (Oryza sativa) = assay: Test B flooded paddy: rice; settings: Flood; 250 g ai/ha; applied to paddy water at 2-leaf stage; visually evaluated after 13 to 15 days
Method: Seeds selected from rice (Oryza sativa), sedge, umbrella (small-flower umbrella sedge Cyperus difformis), ducksalad (Heteranthera limosa), and barnyardgrass (Echinochloa crus-galli) were grown to the 2-leaf stage for testing. At time of treatment, test pots were flooded to 3 cm above the soil surface, treated by application of test compounds directly to the paddy water, and then maintained at that water depth for the duration of the test.
Treated plants and controls were maintained in a greenhouse for 13 to 15 days, after which time all species were compared to controls and visually evaluated. Plant response ratings, summarized in Table B, are based on a scale of 0 to 100 where 0 is no effect and 100 is complete control. A dash (-) response means no test result.

[4] = system: crabgrass, large (large crabgrass, Digitaria sanguinalis); assay: Test A pre-/postemergence: crabgrass, large; settings: for Crabgrass, Large plant response rating: Postemergence; for Plant response rating, Crabgrass, Large: Preemergence
In short: as §1

[5] = system: ducksalad (Heteranthera limosa); assay: Test B flooded paddy: ducksalad; settings: Flood; 250 g ai/ha; applied to paddy water at 2-leaf stage; visually evaluated after 13 to 15 days
In short: (§2)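 Two-leaf-stage plants, pots flooded (3 cm above soil) and treated through the water, which stayed at that depth. After 13–15 days in greenhouse conditions, visual assessment versus controls: 0 is no effect, 100 complete control, dash means no result.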

[6] = system: barnyardgrass (Echinochloa crus-galli); assay: Test B flooded paddy: barnyardgrass; settings: Flood; 250 g ai/ha; applied to paddy water at 2-leaf stage; visually evaluated after 13 to 15 days
In short: as §2

[7] = system: barnyardgrass (Echinochloa crus-galli); assay: Test A pre-/postemergence: barnyardgrass; settings: for Barnyardgrass plant response rating: Postemergence; for Plant response rating, Barnyardgrass: Preemergence
In short: as §1

[8] = system: velvetleaf (Abutilon theophrasti); assay: Test A pre-/postemergence: velvetleaf; settings: for Velvetleaf plant response rating: Postemergence; for Plant response rating, Velvetleaf: Preemergence
In short: as §1

[9] = system: foxtail, giant (giant foxtail, Setaria faberii); assay: Test A pre-/postemergence: foxtail, giant; settings: for Foxtail, Giant plant response rating: Postemergence; for Plant response rating, Foxtail, Giant: Preemergence
In short: as §1

corn (Zea mays) = assay: Test A pre-/postemergence: corn; settings: for Corn plant response rating: Postemergence; for Plant response rating, Corn: Preemergence
In short: as §1

[10] = system: sedge, umbrella (small-flower umbrella sedge Cyperus difformis); assay: Test B flooded paddy: sedge, umbrella; settings: Flood; 250 g ai/ha; applied to paddy water at 2-leaf stage; visually evaluated after 13 to 15 days
In short: as §2

[11] = 125 g ai/ha, 0 to 100 scale, 0 is no effect, 100 is complete control
[12] = 500 g ai/ha, visual rating on 0 to 100 scale (0 no effect, 100 complete control), approximately ten days
[13] = 125 g ai/ha, 0 to 100 scale (0 no effect, 100 complete control)
[14] = 500 g ai/ha, 0 to 100 scale, 0 is no effect, 100 is complete control
[15] = 31 g ai/ha, visual rating on 0 to 100 scale (0 no effect, 100 complete control), approximately ten days
[16] = 31 g ai/ha, 0 to 100 scale, 0 is no effect, 100 is complete control

Row | Structure (SMILES) | Pigweed plant response rating [1, 11] | Pigweed plant response rating [1, 12] | Plant response rating, Pigweed [1, 13] | Morningglory plant response rating [2, 11] | Wheat plant response rating [3, 11] | Plant response rating, Wheat [3, 13] | Plant response rating, Rice (0 to 100 scale, 0 is no effect, 100 is complete control) (rice (Oryza sativa)) | Crabgrass, Large plant response rating [4, 11] | Plant response rating, Crabgrass, Large [4, 13] | Plant response rating, Ducksalad (0 to 100 scale, 0 is no effect, 100 is complete control) [5] | Plant response rating, Barnyardgrass (0 to 100 scale, 0 is no effect, 100 is complete control) [6] | Barnyardgrass plant response rating [7, 11] | Plant response rating, Barnyardgrass [7, 13] | Velvetleaf plant response rating [8, 11] | Plant response rating, Velvetleaf [8, 13] | Foxtail, Giant plant response rating [9, 11] | Plant response rating, Foxtail, Giant [9, 13] | Corn plant response rating (corn (Zea mays); [11]) | Plant response rating, Corn (corn (Zea mays); [13]) | Plant response rating, Sedge, Umbrella (0 to 100 scale, 0 is no effect, 100 is complete control) [10] | other results
1 | Cc1nn(-c2ccccc2Cl)nc1C(=O)c1cccc(C(F)(F)F)c1 [Compound 5] | 10 | 30 | 0 | 0 | 0 | 0 | 0 | 0 | 0 | 0 | 0 | 0 | 0 | 0 | 0 | 0 | 0 | 0 | 0 | 0 | Plant response rating, Pigweed [1, 14]: 0; Morningglory plant response rating [2, 12]: 0; Plant response rating, Morningglory [2, 13]: 0; Plant response rating, Morningglory [2, 14]: 0; Wheat plant response rating [3, 12]: 0; Plant response rating, Wheat [3, 14]: 0; Crabgrass, Large plant response rating [4, 12]: 0; Plant response rating, Crabgrass, Large [4, 14]: 0; Barnyardgrass plant response rating [7, 12]: 0; Plant response rating, Barnyardgrass [7, 14]: 0; Velvetleaf plant response rating [8, 12]: 0; Plant response rating, Velvetleaf [8, 14]: 0; Foxtail, Giant plant response rating [9, 12]: 0; Plant response rating, Foxtail, Giant [9, 14]: 0; Corn plant response rating (corn (Zea mays); [12]): 0; Plant response rating, Corn (corn (Zea mays); [14]): 0
2 | CSc1ccccc1-n1nc(C)c(C(=O)c2cccc(C(F)(F)F)c2)n1 [Compound 6] | 0 | 30 | 0 | 0 | 0 | 0 | 0 | 0 | 0 | 0 | 0 | 0 | 0 | 0 | 0 | 0 | 0 | 0 | 0 | 0 | Plant response rating, Pigweed [1, 14]: 0; Morningglory plant response rating [2, 12]: 0; Plant response rating, Morningglory [2, 13]: 0; Plant response rating, Morningglory [2, 14]: 0; Wheat plant response rating [3, 12]: 0; Plant response rating, Wheat [3, 14]: 0; Crabgrass, Large plant response rating [4, 12]: 20; Plant response rating, Crabgrass, Large [4, 14]: 0; Barnyardgrass plant response rating [7, 12]: 0; Plant response rating, Barnyardgrass [7, 14]: 0; Velvetleaf plant response rating [8, 12]: 0; Plant response rating, Velvetleaf [8, 14]: 0; Foxtail, Giant plant response rating [9, 12]: 10; Plant response rating, Foxtail, Giant [9, 14]: 0; Corn plant response rating (corn (Zea mays); [12]): 0; Plant response rating, Corn (corn (Zea mays); [14]): 0
3 | COc1nn(-c2ccc(F)cc2)nc1Oc1ccnc(C(F)(F)F)c1 [Compound 34] | 80 |  | 10 | 30 | 0 | 0 | 35 | 20 | 50 | 75 | 65 | 10 | 0 | 10 | 0 | 20 | 30 | 10 | 0 | 90 | Pigweed plant response rating [1, 15]: 20; Plant response rating, Pigweed [1, 16]: 0; Morningglory plant response rating [2, 15]: 20; Plant response rating, Morningglory [2, 16]: 0; Plant response rating, Morningglory [2, 13]: 0; Wheat plant response rating [3, 15]: 0; Plant response rating, Wheat [3, 16]: 0; Crabgrass, Large plant response rating [4, 15]: 10; Plant response rating, Crabgrass, Large [4, 16]: 0; Barnyardgrass plant response rating [7, 15]: 0; Plant response rating, Barnyardgrass [7, 16]: 0; Velvetleaf plant response rating [8, 15]: 0; Plant response rating, Velvetleaf [8, 16]: 0; Foxtail, Giant plant response rating [9, 15]: 10; Plant response rating, Foxtail, Giant [9, 16]: 0; Corn plant response rating (corn (Zea mays); [15]): 10; Plant response rating, Corn (corn (Zea mays); [16]): 0
4 | Cc1nn(-c2ccccc2)nc1C(=O)c1cccc(C(F)(F)F)c1 [Compound 43] | 50 | 70 | 50 | 0 | 0 | 0 | 0 | 30 | 30 | 85 | 0 | 10 | 0 | 20 | 0 | 20 | 20 | 20 | 0 | 100 | Plant response rating, Pigweed [1, 14]: 60; Morningglory plant response rating [2, 12]: 40; Wheat plant response rating [3, 12]: 30; Plant response rating, Wheat [3, 14]: 0; Crabgrass, Large plant response rating [4, 12]: 40; Plant response rating, Crabgrass, Large [4, 14]: 80; Barnyardgrass plant response rating [7, 12]: 20; Plant response rating, Barnyardgrass [7, 14]: 20; Velvetleaf plant response rating [8, 12]: 20; Plant response rating, Velvetleaf [8, 14]: 0; Foxtail, Giant plant response rating [9, 12]: 30; Plant response rating, Foxtail, Giant [9, 14]: 90; Corn plant response rating (corn (Zea mays); [12]): 30; Plant response rating, Corn (corn (Zea mays); [14]): 10
